≈ marks a conversion by molar mass, not a printed value.
How the values were obtained:
Format in all cases: cell-based
[1] = system: 3T3-L1 murine embryonic fibroblast line; test: Neutral red uptake toxicity test, 3T3-L1 fibroblasts; conditions: medium with serum; for concentration at which the number of viable cells decreased to less than 50%: 24 h exposure
Method: Preliminary tests were conducted in the 3T3-L1 murine embryonic fibroblast line (ATCC, CL-173™), an immortalized line (highly tolerant cells). DMEM was used as the medium. 24 h after seeding and successful adhesion, polymers dissolved in the medium were added to the cells (the medium was first replaced with a serum-free medium in serum-free experiments), and viable cells were quantified after another 24 h using the neutral red uptake assay.
The toxicity of ciclopirox and terbinafine, two commercially used antifungal drugs, was evaluated in similar conditions (the same cell line, medium composition and exposure time).

[2] = system: Aspergillus fumigatus DSM 819; test: Antifungal microdilution MIC test; conditions: comparative test; for MIC: Aspergillus fumigatus, DSM819
Method: (§1) In vitro tests of the antifungal activity of the polymers were performed with respect to selected fungal species obtained from international culture collections and the microorganism collection in the Department of Infection Control and Mycology, Chair of Microbiology, Jagiellonian University Medical College. The test was performed using the microdilution method in a liquid medium on flat-bottomed, 96-well polypropylene titration plates. The applied methodology was based on antifungal susceptibility testing procedures developed by the European Committee on Antimicrobial Susceptibility Testing (EUCAST) and on the Hancock Lab procedure for antimicrobial cationic peptides.
(§2) The test compounds were dissolved in sterile distilled water and starting concentrations of 5 g/L were prepared, from which a series of two-fold dilutions in water were obtained. Respective polymer dilutions were transferred in a volume of 20 μL on titration plates (wells 1-10). 20 μL of sterile distilled water was transferred to each of wells 11 and 12. Wells 1-11 were inoculated with fungi in a volume of 180 μL of fungal cell suspensions in a liquid medium, and 180 μL of the sterile medium was transferred to well 12. Fungal suspensions were prepared from fresh cultures on agar media by collecting spores using a sterile swab into sterile distilled water or sterile distilled water with Tween-20 added. Suspensions of certain strains were filtered to remove any hyphal elements (filters with a pore diameter of 20 μm and 10 μm were used). The suspensions were brought to a density of 0.5 on the McFarland scale, and subsequently diluted to 1:20 in a liquid RPMI-1640 medium with L-glutamine and without sodium bicarbonate, supplemented with glucose (2%) and buffered morpholinopropanesulfonic acid (MOPS) (0.165 mol/L).
(§3) Final polymer concentrations on plates after adding fungal suspensions in the liquid medium were 0.49-250 mg/L or 0.98-500 mg/L.
(§4) Incubation was performed at room temperature, 27° C., 37° C., depending on the fungal species, until fungal growth was obtained in growth control (well 11). After the incubation period, fungal growth was evaluated visually and the lowest polymer concentrations that caused complete fungal growth inhibition (MIC (minimal inhibitory concentration) values) were determined.
(§5) A test was performed on selected fungal strains to compare MIC values of the PMAPTAC133 polymer with the MIC values of two known antifungal drugs (terbinafine and ciclopirox), used in the treatment of fungal infections of glabrous skin, hairy skin and nails.
(§6) The procedure described in the section above (Example 8) was used in the testing.
(§7) The drugs were dissolved in dimethyl sulfoxide (DMSO) and starting concentrations of 4 g/L were prepared, from which series of two-fold dilutions in DMSO were obtained. Respective […] concentrations were diluted to 1:100 in sterile water and subsequently transferred to wells 1-10 on a titration plate in a volume of 20 μL. Wells 11 and 12 were filled up with 20 μL DMSO diluted to 1:10 in water. Wells 1-11 were inoculated with fungi in a volume of 180 μL of fungal cell suspensions in a liquid medium, and […] of the sterile medium was transferred to well 12. Final drug concentrations on plates after adding fungal suspensions in the liquid medium were 0.008-4 mg/L.

[3] = system: Aspergillus fumigatus SU 56; test: Antifungal microdilution MIC test; conditions: comparative test; for MIC: Aspergillus fumigatus, SU56
Method: as §1, §2, §3, §4, §5, §6, §7

[4] = system: Aspergillus terreus DSM 1958; test: Antifungal microdilution MIC test; conditions: comparative test; for MIC: Aspergillus terreus, DSM1958
Method: as §1, §2, §3, §4, §5, §6, §7

[5] = system: Candida albicans ATCC 90028; test: Antifungal microdilution MIC test; conditions: ATCC90028, comparative test
Method: as §1, §2, §3, §4, §5, §6, §7

[6] = system: Fusarium solani strain 155; test: Antifungal microdilution MIC test; conditions: comparative test
Method: as §1, §2, §3, §4, §5, §6, §7

[7] = system: Trichophyton interdigitale D182; test: Antifungal microdilution MIC test; conditions: comparative test
Method: as §1, §2, §3, §4, §5, §6, §7

[8] = system: Trichophyton interdigitale DSM4167; test: Antifungal microdilution MIC test; conditions: comparative test
Method: as §1, §2, §3, §4, §5, §6, §7

Trichophyton rubrum D320 = test: Antifungal microdilution MIC test; conditions: comparative test
Method: as §1, §2, §3, §4, §5, §6, §7

[9] = system: Trichophyton rubrum DSM 16111; test: Antifungal microdilution MIC test; conditions: DSM16111, comparative test
Method: as §1, §2, §3, §4, §5, §6, §7

[10] = system: Trichophyton tonsurans 264; test: Antifungal microdilution MIC test; conditions: comparative test
Method: as §1, §2, §3, §4, §5, §6, §7

[11] = system: Candida glabrata ATCC 15545; test: Antifungal microdilution MIC test; conditions: Nakaseomyces glabratus, ATCC15545, comparative test
Method: as §1, §2, §3
(§8) Incubation was performed at room temperature, 27° C., 37° C., depending on the fungal species, until fungal growth was obtained in growth control (well 11). After the incubation period, fungal growth was evaluated visually and the lowest polymer concentrations that caused complete fungal growth inhibition (MIC (minimal inhibitory concentration) values) were determined. […]

Candida krusei ATCC 6258 = test: Antifungal microdilution MIC test; conditions: Pichia kudriavzevii, ATCC6258, comparative test
Method: as §1, §2, §3, §8

Fusarium oxysporum 109 = test: Antifungal microdilution MIC test; conditions: comparative test
Method: as §1, §2, §3, §8

[12] = system: Fusarium oxysporum DSM 841; test: Antifungal microdilution MIC test; conditions: DSM841, comparative test
Method: as §1, §2, §3, §8

Fusarium solani DSM 1164 = test: Antifungal microdilution MIC test; conditions: DSM1164, comparative test
Method: as §1, §2, §3, §8

Row | SMILES | concentration at which the number of viable cells decreased to less than 50% [1] | MIC ([2]; incubation time 24 h) | MIC ([2]; incubation time 48 h) | MIC ([3]; incubation time 24 h) | MIC ([3]; incubation time 48 h) | MIC ([4]; incubation time 24 h) | MIC ([4]; incubation time 48 h) | MIC ([5]; incubation time 24 h) | MIC ([5]; incubation time 48 h) | MIC ([6]; incubation time 24 h) | MIC ([6]; incubation time 48 h) | MIC ([7]; incubation time 48 h) | MIC ([7]; incubation time 72 h) | MIC ([8]; incubation time 48 h) | MIC ([8]; incubation time 72 h) | MIC (Trichophyton rubrum D320; incubation time 48 h) | MIC (Trichophyton rubrum D320; incubation time 72 h) | MIC ([9]; incubation time 24 h) | MIC ([9]; incubation time 48 h) | MIC ([9]; incubation time 72 h) | further results
1 | Cc1cc(C2CCCCC2)n(O)c(=O)c1 [Ciclopirox, ciclopirox] | ≥ 5000 ng/mL | > 4 µg/mL | > 4 µg/mL | > 4 µg/mL | > 4 µg/mL | > 4 µg/mL | > 4 µg/mL | > 4 µg/mL | > 4 µg/mL | > 4 µg/mL | > 4 µg/mL | > 4 µg/mL | > 4 µg/mL | > 4 µg/mL | > 4 µg/mL | > 4 µg/mL | > 4 µg/mL | > 4 µg/mL | > 4 µg/mL | > 4 µg/mL | MIC ([7]; incubation time 24 h): > 4 µg/mL; MIC ([8]; incubation time 24 h): > 4 µg/mL; MIC (Trichophyton rubrum D320; incubation time 24 h): > 4 µg/mL; MIC ([10]; incubation time 48 h): > 4 µg/mL; MIC ([10]; incubation time 72 h): > 4 µg/mL; MIC ([11]; incubation time 24 h): > 4 µg/mL; MIC ([11]; incubation time 48 h): > 4 µg/mL; MIC (Candida krusei ATCC 6258; incubation time 24 h): > 4 µg/mL; MIC (Candida krusei ATCC 6258; incubation time 48 h): > 4 µg/mL; MIC (Fusarium oxysporum 109; incubation time 24 h): > 4 µg/mL; MIC (Fusarium oxysporum 109; incubation time 48 h): > 4 µg/mL; MIC ([12]; incubation time 24 h): > 4 µg/mL; MIC ([12]; incubation time 48 h): > 4 µg/mL; MIC (Fusarium solani DSM 1164; incubation time 24 h): > 4 µg/mL; MIC (Fusarium solani DSM 1164; incubation time 48 h): > 4 µg/mL
2 | CN(C/C=C/C#CC(C)(C)C)Cc1cccc2ccccc12 [Terbinafine, terbinafine] | 25000 ng/mL | > 4 µg/mL | > 4 µg/mL | 4 µg/mL (≈ 13.7 µM) | > 4 µg/mL | 2 µg/mL (≈ 6.86 µM) | > 4 µg/mL | > 4 µg/mL | > 4 µg/mL | > 4 µg/mL | > 4 µg/mL | 0.25 µg/mL (≈ 0.858 µM) | 0.5 µg/mL (≈ 1.72 µM) | 0.25 µg/mL (≈ 0.858 µM) | 0.25 µg/mL (≈ 0.858 µM) | 0.125 µg/mL (≈ 0.429 µM) | 2 µg/mL (≈ 6.86 µM) | 0.06 µg/mL (≈ 0.206 µM) | 0.25 µg/mL (≈ 0.858 µM) | 0.25 µg/mL (≈ 0.858 µM) | viable cells ([1]; concentrations of 50, 75 and 100 μg/mL, 24 h): ≤ 10%; concentration with growth suppression ([2]; incubation time 24 h): 2 mg/L; concentration with growth suppression ([3]; incubation time 48 h): >4 mg/L; concentration with growth suppression ([4]; incubation time 48 h): 2 mg/L; MIC ([10]; incubation time 48 h): 0.5 µg/mL (≈ 1.72 µM); MIC ([10]; incubation time 72 h): 0.5 µg/mL (≈ 1.72 µM); MIC ([11]; incubation time 24 h): > 4 µg/mL; MIC ([11]; incubation time 48 h): > 4 µg/mL; MIC (Candida krusei ATCC 6258; incubation time 24 h): > 4 µg/mL; MIC (Candida krusei ATCC 6258; incubation time 48 h): > 4 µg/mL; MIC (Fusarium oxysporum 109; incubation time 24 h): > 4 µg/mL; MIC (Fusarium oxysporum 109; incubation time 48 h): > 4 µg/mL; MIC ([12]; incubation time 24 h): > 4 µg/mL; MIC ([12]; incubation time 48 h): > 4 µg/mL; MIC (Fusarium solani DSM 1164; incubation time 24 h): > 4 µg/mL; MIC (Fusarium solani DSM 1164; incubation time 48 h): > 4 µg/mL

— patent publication US20260258172A1, “CATIONIC POLYMERS WITH SELECTIVE ANTIFUNGAL PROPERTIES” (Uniwersytet Jagiellonski, priority 2022, published 2026)
